Test results published in EP0863880B1, “NOVEL 1-AR(ALK)YL-IMIDAZOLIN-2-ONES CONTAINING A DISUBSTITUTED AMINE RADICAL IN THE 4TH POSITION, HAVING AN ANTI-CONVULSIVE EFFECT, AND PROCESS FOR THEIR PRODUCTION” (elbion AG, priority 1995, dated 1997).

How the values were obtained:
[1] = octanol/water partition coefficient; format: physicochemical; conditions: Octanol/Wasser, read-out: log P (Verteilungskoeffizient Octanol/Wasser)
[2] = test system: maximaler Elektroschock; assay: maximal electroshock (MES) test, mouse i.p.; format: in vivo; conditions: Maus i.p.
[3] = test system: s.c. Pentetrazol; assay: s.c. pentetrazole (PTZ) test, mouse i.p.; format: in vivo; conditions: Maus i.p.
[4] = test system: s.c. Pentetrazol-Test; assay: s.c. pentetrazole test, rat
[5] = test system: Neurotoxizität; conditions: Ratte, p.o.
[6] = test system: maximalen Elektroschock; assay: maximal electroshock test, rat p.o.; conditions: po, read-out: ED50 (p.o.)

SMILES | logP [1] | Wirkung in % der geschützten Tiere ([2]; Dosis 300 mg/kg) [%] | Wirkung in % der geschützten Tiere ([3]; Dosis 300 mg/kg) [%] | Wirkung in % der geschützten Tiere ([2]; Dosis 100 mg/kg) [%] | Wirkung in % der geschützten Tiere ([3]; Dosis 100 mg/kg) [%] | also measured
NC(=O)N1c2ccccc2C=Cc2ccccc21 [Carbamazepin, reference compound] |  |  |  | 100 | 0 | 
O=C1N=C(N2CCOCC2)CN1c1ccccc1 [Verbindung 1] | 0.64 |  |  | 30 | 30 | 
O=C1N=C(N2CCOCC2)CN1c1ccc(F)cc1 [Verbindung 9] | 0.97 |  |  | 30 | 100 | 
O=C1N=C(N2CCCCC2)CN1c1ccc(Cl)cc1 [Verbindung 3] | 2.29 |  |  | 100 | 100 | 
O=C1N=C(N2CCOCC2)CN1c1ccc(Cl)cc1 [Verbindung 2, 1-(4-Chlorphenyl)-4-morpholinoimidazolin-2-on] | 1.48 | 30 |  |  |  | ED50 [4]: 16 mg/kg; NT50 [5]: > 400 mg/kg; Wirkung in % der geschützten Tiere ([3]; Dosis 30 mg/kg): 70%; ED50 [6]: 21 mg/kg
CCCC(CCC)C(=O)O [Valproat, reference compound] |  |  |  | 0 | 30 | 

The next lines start with results.

logP [1] | SMILES | Wirkung in % der geschützten Tiere ([2]; Dosis 300 mg/kg) [%] | Wirkung in % der geschützten Tiere ([3]; Dosis 300 mg/kg) [%] | Wirkung in % der geschützten Tiere ([2]; Dosis 100 mg/kg) [%] | Wirkung in % der geschützten Tiere ([3]; Dosis 100 mg/kg) [%] | also measured
1.28 | O=C1N=C(N2CCOCC2)CN1c1cccc(Cl)c1 [Verbindung 10] | 10 | 70 |  |  | 
0.48 | O=C1N=C(N2CCOCC2)CN1Cc1ccccc1 [Verbindung 4] | 30 | 30 |  |  | 
2.56 | O=C1N=C(N2CCCCCC2)CN1c1ccc(Cl)cc1 [Verbindung 11] | 100 | 40 |  |  | 
1.61 | CN(C)C1=NC(=O)N(c2ccc(Cl)cc2)C1 [Verbindung 6] | 100 |  |  | 20 | 
1.45 | O=C1N=C(N2CCOCC2)CN1c1ccc(Br)cc1 [Verbindung 8] | 30 |  |  | 100 | 
2.17 | CN1CCN(C2=NC(=O)N(c3ccc(Cl)cc3)C2)CC1 [Verbindung 5] | 100 | 100 |  |  | 
1.53 | COc1ccc(N2CC(N3CCCCC3)=NC2=O)cc1 [Verbindung 7] | 100 |  |  | 100 | 
